Read-outs that look alike come from different tables or passages of the source.
How the values were obtained:
[1] = Determination of pharmacokinetic parameters in rats after oral gavage; assay type: in vivo, rat; conditions: female rats; for AUC (area under concentration vs. time curve, 0–24 h): parent triazolone measured in plasma; for concentration at 2 h / concentration at 6 h: rat, plasma; for concentration at 2 h: read-out: Cp (2 h) plasma concentration; for concentration at 6 h: read-out: Cp (6 h) plasma concentration
Procedure: Intact female rats weighing 200-250 g were used. Groups of three or five rats were used for each dose level of an experimental compound and one rat was used as a vehicle control. Animals were allowed normal access to chow and water throughout the experiment. The test substance was formulated as an aqueous suspension containing hydroxypropyl cellulose, polysorbate 80 and benzyl alcohol adjusted to pH 3.5 with HCl or NaOH at a dose equivalent to (0.127 mmol) and was administered orally by gavage. A blood sample (0.3 mL) was collected from the treated rats at, 2, 4, 6 and 8 h from the orbital sinus and at 24 h by cardiac puncture. A sample of at least 0.3 mL of blood was withdrawn from the untreated animals 3 h after dosing. Potassium oxalate/NaF and lithium heparin were added to the samples which were stored on ice during sampling procedure. The samples were spun in a refrigerated centrifuge at […] as soon as possible and the plasma samples were stored −20° C. immediately after centrifugation and later transferred to a −80° C. freezer until analysis. Aliquots of plasma (0.05 mL) were mixed with 0.35 mL of an internal standard (and 0.05 mL of acetonitrile containing 0.1% formic acid. A set of calibration standards was prepared by mixing 0.05-mL aliquots of plasma from untreated rats with 0.05-mL aliquots of standard solution in acetonitrile containing 0.1% formic acid and 0.35-mL aliquots of the internal standard in acetonitrile containing 0.1% formic acid). Each plasma sample and calibration standard was vortexed thoroughly and then centrifuged (3000×g) at 4° C. for 20 min to precipitate the protein. Each supernatant from centrifugation was transferred into a separate injection vial for LC/MS/MS analysis.

melting point | SMILES | also measured
145.8 to 149.5 °C | Cn1c(Cc2ccc(Cl)c(Oc3cc(Cl)cc(C#N)c3)c2F)nn(CO)c1=O [Compound I-1] | –
156.7 to 158 °C | Cn1c(Cc2ccc(Br)c(Oc3cc(C#N)cc(C(F)F)c3)c2F)nn(COC(=O)CCC(=O)O)c1=O [Compound I-9, Succinic acid mono-{3-[4-bromo-3-(3-cyano-5-difluoromethyl-phenoxy)-2-fluoro-benzyl]-4-methyl-5-oxo-4,5-dihydro-[1,2,4]triazol-1-ylmethyl}ester] | –
139.2 to 140.5 °C | Cc1ccc(Cc2nn(COC(=O)CCC(=O)O)c(=O)n2C)c(F)c1Oc1cc(C#N)cc(C(F)F)c1 [Compound I-7, Succinic acid mono-{3-[3-(3-cyano-5-difluoromethyl-phenoxy)-2-fluoro-4-methyl-benzyl]-4-methyl-5-oxo-4,5-dihydro-[1,2,4]triazol-1-ylmethyl}ester] | –
– | Cn1c(Cc2ccc(Cl)c(Oc3cc(C#N)cc(C(F)F)c3)c2F)n[nH]c1=O [parent] | AUC (area under concentration vs. time curve, 0–24 h) ([1]; dose 152 mg/kg (equimolar to I-5 200 mg/kg)): 68800 ng·h/mL; AUC (area under concentration vs. time curve, 0–24 h) ([1]; dose 530 mg/kg (equimolar to I-5 700 mg/kg)): 85400 ng·h/mL; concentration at 2 h ([1]; dose 152 mg/kg): 2740 ng/mL; concentration at 6 h ([1]; dose 152 mg/kg): 5020 ng/mL; concentration at 2 h ([1]; dose 530 mg/kg): 3180 ng/mL; concentration at 6 h ([1]; dose 530 mg/kg): 5970 ng/mL
152.2 to 153.5 °C | CCc1ccc(Cc2nn(COC(=O)CCC(=O)O)c(=O)n2C)c(F)c1Oc1cc(C#N)cc(C(F)F)c1 [Compound I-11, succinic acid mono-{3-[3-(3-cyano-5-difluoromethyl-phenoxy)-4-ethyl-2-fluoro-benzyl]-4-methyl-5-oxo-4,5-dihydro-[1,2,4]triazol-1-ylmethyl}ester] | –
158.9 to 162.2 °C | Cn1c(Cc2ccc(Cl)c(Oc3cc(C#N)cc(C#N)c3)c2F)nn(CO)c1=O [Compound I-3] | –
150.5 to 151.1 °C | Cn1c(Cc2ccc(Cl)c(Oc3cc(C#N)cc(C(F)F)c3)c2F)nn(COC(=O)CCC(=O)O)c1=O [Compound I-5, Succinic acid mono-{3-[4-chloro-3-(3-cyano-5-difluoromethyl-phenoxy)-2-fluoro-benzyl]-4-methyl-5-oxo-4,5-dihydro-[1,2,4]triazol-1-ylmethyl}ester] | –
141.6 to 143.3 °C | Cn1c(Cc2ccc(Cl)c(Oc3cc(C#N)cc(C#N)c3)c2F)nn(COC(=O)CCC(=O)O)c1=O [Compound I-4, Succinic acid mono-{3-[4-chloro-3-(3,5-dicyano-phenoxy)-2-fluoro-benzyl]-4-methyl-5-oxo-4,5-dihydro-[1,2,4]triazol-1-ylmethyl}ester] | –
136.6 to 141.9 °C | Cn1c(Cc2ccc(Cl)c(Oc3cc(Cl)cc(C#N)c3)c2F)nn(COC(=O)CCC(=O)O)c1=O [Compound I-2, Succinic acid mono-{3-[4-chloro-3-(3-chloro-5-cyano-phenoxy)-2-fluoro-benzyl]-4-methyl-5-oxo-4,5-dihydro-[1,2,4]triazol-1-ylmethyl}ester] | –
